Test results as given in patent US7368567B2, “Arylsulfonyl benzodioxanes, benzoxazines and benzothiazines as 5-HT6 antagonists” (Roche Palo Alto LLC, priority 2004, dated 2008).

Tests used:
[1] = molecular target: T1, recombinant human 5-HT2A receptor (Homo sapiens, UniProt P28223); assay: Radioligand binding, [3H]Ketanserin competition in CHO-K1 cell membranes; conditions: [3H]Ketanserin displacement, 32° C., pH 7.4, read-out: pKi for the 5-HT2A receptor (converted)
T1 construct: expressed in transfected cells
Description: The binding activity of compounds of this invention in vitro was determined as follows. Duplicate determinations of 5-HT6 ligand affinity were made by competing for binding of [^3H]LSD in cell membranes derived from HEK293 cells stably expressing recombinant human 5-HT6 receptor. Duplicate determinations of 5-HT2A ligand affinity were made by competing for binding of [^3H]Ketanserin (3-(2-(4-(4-fluorobenzoyl)piperidinol)ethyl)-2,4(1H,3H)-quinazolinedione) in cell membranes derived from CHO—K1 cells stably expressing recombinant human 5-HT2A receptor. Membranes were prepared from HEK 293 cell lines by the method described by Monsma et al., Molecular Pharmacology, Vol. 43 pp. 320-327 (1993), and from CHO—K1 cell lines as described by Bonhaus et al., Br J Pharmacol. June;1 15(4):622-8 (1995).
For estimation of affinity at the 5-HT6 receptor, all determinations were made in assay buffer containing 50 mM Tris-HCl, 10 mM MgSO4, 0.5 mM EDTA, 1 mM ascorbic acid, pH 7.4 at 37° C., in a 250 microliter reaction volume. […]
Assay tubes containing [^3H] […] LSD or [^3H]Ketanserin were determined as radioactive counts per minute using Packard TopCount.
Displacement of [^3H]LSD or [^3H]Ketanserin from the binding sites was quantified by fitting concentration-binding data to a 4-parameter logistic equation: […]

T1 sequence (P28223 whole entry): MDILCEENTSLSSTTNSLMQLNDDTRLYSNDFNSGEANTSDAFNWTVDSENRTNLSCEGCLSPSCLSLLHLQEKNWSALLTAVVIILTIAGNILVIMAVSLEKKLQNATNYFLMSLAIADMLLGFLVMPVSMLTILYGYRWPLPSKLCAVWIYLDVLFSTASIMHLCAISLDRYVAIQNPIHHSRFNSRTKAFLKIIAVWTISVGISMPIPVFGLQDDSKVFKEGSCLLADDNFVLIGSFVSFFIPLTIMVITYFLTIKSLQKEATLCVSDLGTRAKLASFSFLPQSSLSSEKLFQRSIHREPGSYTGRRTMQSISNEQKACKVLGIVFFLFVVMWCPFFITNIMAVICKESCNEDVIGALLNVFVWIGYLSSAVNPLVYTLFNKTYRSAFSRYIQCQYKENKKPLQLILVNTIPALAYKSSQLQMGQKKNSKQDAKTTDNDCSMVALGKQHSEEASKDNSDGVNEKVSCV

SMILES: CNC[C@H]1COc2ccc(S(=O)(=O)c3cccc(F)c3)cc2O1 [[7-(3-Fluoro-benzenesulfonyl)-2,3-dihydro-benzo[1,4]dioxin-2-(S)-ylmethyl]-methyl-amine]
- melting point: 245.8 to 246.4 °C
- Ki [1]: ~18.2 nM
